# Where a name gives a salt, the structure may show the parent alone.
# System: IL-2 production
# Test: Inhibition of IL-2 production in PHA-activated Jurkat cells (ELISA)
# Assay type: cell-based, human
# Conditions: Homo sapiens, Jurkat, 20 h, Jurkat cells, PHA 2.5 μg/mL, 20 hours, IL-2 ELISA; read-out: IC50 (inhibition of IL-2 production)
# Procedure: Jurkat cells were placed in a 96 well plate (0.5 million cells per well in 1% FBS medium) then a test compound of this invention was added at different concentrations. After 10 minutes, the cells were activated with PHA (final concentration 2.5 μg/mL) and incubated for 20 hours at 37° C. under CO2. The final volume was 200 μL. Following incubation, the cells were centrifuged and the supernatants collected and stored at −70° C. prior to assaying for IL-2 production. A commercial ELISA kit (IL-2 Eli-pair, Diaclone Research, Besancon, France) was used to detect production of IL-2, from which dose response curves were obtained. The IC50 value was calculated as the concentration at which 50% of maximum IL-2 production after stimulation was inhibited versus a non-stimulation control.
row,Structure (SMILES),IC50
1,"COc1ccc(-c2ncco2)cc1-c1ccc(NC(=O)c2c(F)cccc2F)cc1 [Compound 13, 2,6-Difluoro-N-(2′-methoxy-5′-oxazol-2-yl-biphenyl-4-yl)-benzamide]",6 nM
2,"Cc1ccc(-c2nccs2)cc1-c1ccc(NC(=O)c2c(F)cccc2F)cc1 [Compound 15, 2,6-Difluoro-N-(2′-methyl-5′-thiazol-2-yl-biphenyl-4-yl)-benzamide]",2 nM
3,"Cc1cnccc1C(=O)Nc1ccc(-c2cc(-c3ncco3)ccc2Cl)cc1 [Compound 17, 3-Methyl-N-(2′-chloro-5′-oxazol-2-yl-biphenyl-4-yl)-isonicotin-amide, hydrochloride]",7 nM
4,"COc1ncc(Cl)cc1-c1ccc(NC(=O)c2ccncc2F)cc1 [Compound 19, 3-Fluoro-N-[4-(5-chloro-2-methoxy-pyridin-3-yl)-phenyl]-isonicotinamide]",19 nM
5,"Cc1ccc(-c2cccnc2)cc1-c1ccc(NC(=O)c2snnc2C)cc1 [Compound 21, 4-Methyl-[1,2,3]thiadazole-5-carboxylic acid [2′-methyl-5′-(pyridin-3-yl)-biphenyl-4-yl]-amide]",6 nM
6,"Cc1ccc(-c2ccccn2)cc1-c1ccc(NC(=O)c2snnc2C)cc1 [Compound 24, 4-Methyl-[1,2,3]thiadazole-5-carboxylic acid [2′-methyl-5′-(pyridin-2-yl)-biphenyl-4-yl]-amide]",15 nM
7,"COc1ccc(-c2cnco2)cc1-c1ccc(NC(=O)c2snnc2C)cc1 [Compound 25, 4-Methyl-[1,2,3]thiadiazole-5-carboxylic acid [2′-methoxy-5′-(oxazol-5-yl)-biphenyl-4-yl]-amide]",3 nM
8,"Cc1cnccc1C(=O)Nc1ccc(-c2cc(-c3cnco3)ccc2C)cc1 [Compound 26, 3-Methyl-N-[5′-(oxazol-5-yl)-2′-methyl-biphenyl-4-yl]-isonicotinamide]",5 nM

# Next, values leading:
row,IC50,Structure (SMILES)
1,9 nM,"COc1ncc(Cl)cc1-c1ccc(NC(=O)c2ccncc2C)cc1 [Compound 18, 3-Methyl-N-[4-(5-chloro-2-methoxy-pyridin-3-yl)-phenyl]-isonicotinamide]"
2,8 nM,"Cc1cnccc1C(=O)Nc1ccc(-c2cc(-c3cccnc3)ccc2C)cc1 [Compound 20, 3-Methyl-N-[5′-(pyridin-3-yl)-2′-methyl-biphenyl-4-yl]-isonicotinamide]"
3,7 nM,"Cc1ccc(-c2nccs2)cc1-c1ccc(NC(=O)c2c(F)cncc2F)cc1 [Compound 28, 3,5-Difluoro-N-[5′-(thiazol-2-yl)-2′-methyl-biphenyl-4-yl]-isonicotinamide]"
4,5 nM,"Cc1ccc(-c2ccccn2)cc1-c1ccc(NC(=O)c2c(F)cccc2F)cc1 [Compound 23, 2,6-Difluoro-N-[2′-methyl-5′-(pyridine-2-yl)-biphenyl-4-yl]-benzamide]"
5,4 nM,COc1ccc(-c2cnco2)cc1-c1ccc(NC(=O)c2c(F)cccc2F)cc1 [Compound 27]
6,3 nM,"Cc1ccc(-c2ncco2)cc1-c1ccc(NC(=O)c2ccncc2F)cc1 [Compound 10, 3-Fluoro-N-(2′-methyl-5′-oxazol-2-yl-biphenyl-4-yl)-isonicotinamide]"
7,3 nM,"Cc1ccc(-c2ncco2)cc1-c1ccc(NC(=O)c2c(F)cncc2F)cc1 [Compound 11, 3,5-Difluoro-N-(2′-methyl-5′-oxazol-2-yl-biphenyl-4-yl)-isonicotinamide]"
8,1 nM,"Cc1ccc(-c2cccnc2)cc1-c1ccc(NC(=O)c2c(F)cccc2F)cc1 [Compound 22, 2,6-Difluoro-N-[2′-methyl-5′-(pyridine-3-yl)-biphenyl-4-yl]-benzamide]"

# Same assay, conditions: Homo sapiens; Jurkat cells, PHA 2.5 μg/mL, 20 hours, IL-2 ELISA; read-out: IC50 (inhibition of IL-2 production)
row,Structure (SMILES),IC50
1,"Cc1cnccc1C(=O)Nc1ccc(-c2cc(-c3ncco3)ccc2C)cc1 [Compound 7, 3-Methyl-N-(2′-methyl-5′-oxazol-2-yl-biphenyl-4-yl)-isonicotinamide, hydrochloride]",8 nM

# Same assay, conditions: Jurkat cells, PHA 2.5 μg/mL, 20 hours, IL-2 ELISA; read-out: IC50 (inhibition of IL-2 production)
row,IC50,Structure (SMILES)
1,10 nM,"Cc1cnccc1C(=O)Nc1ccc(-c2cc(-c3nccs3)ccc2C)cc1 [Compound 14, 3-Methyl-N-(2′-methyl-5′-thiazol-2-yl-biphenyl-4-yl)-isonicotin-amide]"

# — US8592486B2, “Compounds for inflammation and immune-related uses” (Synta Pharmaceuticals Corp., priority 2005, dated 2013)
